The source of these data is ChEMBL document CHEMBL6078727 (Bioorg Med Chem, 2025).

Data set [1] in a line: (§1) Induction of mitochondrial uncoupling activity in rat L6 myoblast cells assessed as increase in oxygen consumption rate by measuring ratio of integrated area under OCR dose curve above baseline relative to BAM15 up to 200 uM over 90 mins. Format: functional.
A short description of data set [2]: Induction of mitochondrial uncoupling activity in rat L6 myoblast cells assessed as increase in oxygen consumption rate measured over 90 mins. The data set is classed as functional, cell-based.
Another data set concerns L6. Described as §1. Format: functional.
Data set [3] can be described thus: Cmax in C57BL/6J mouse at 10 mg/kg, po administrated via oral gavage by LC-MS/MS analysis. Format: ADME, organism-based. The note with it: in vivo.
Data set [4] is described as follows: Half-life in male C57BL/6J mouse plasma at 10 mg/kg, po administrated via oral gavage by LC-MS/MS analysis. Format: ADME, organism-based. The following applies: in vivo.

The source made the active and inactive calls. The calls are words filed in the database; no cut-off is given here.

For the compound `Cc1cc(C)cc(C(=O)ONc2nc3nonc3nc2Nc2ccccc2F)c1`, the Activity in data set [1] is 9%. Also, the EC50 – broadly, the concentration needed to bring the measured effect to its halfway point – in data set [2] was determined as 1.49 µM.

Consider `ONc1nc2nonc2nc1Nc1ccccc1F`, for which the Activity in data set [1] was 41%. Besides, the concentration for a half-maximal effect (EC50) in data set [2] came out at 87.6 µM.

For the compound `CC(C)(C)OC(=O)NNc1nc2nonc2nc1Nc1cccc(F)c1`, the Activity in data set [1] came to 32%. For the same compound, the 50% effective concentration (EC50) in data set [2] worked out at 1.1 µM.

Take `O=C(ONc1nc2nonc2nc1Nc1ccccc1F)c1ccccc1C(F)(F)F`: the Activity in data set [1] came out at 65%. Moreover, the EC50 in data set [2] stood at 6.56 µM.

Take `CN(Nc1nc2nonc2nc1Nc1ccccc1F)C(=O)OC(C)(C)C`: in data set [1], the Activity is 65%. In data set [2], the EC50 worked out at 8.4 µM.

As to `NNc1nc2nonc2nc1Nc1ccccc1F`, the result in the data set on L6 was inactive.

For `CCOC(=O)NNc1nc2nonc2nc1Nc1ccccc1F`, in data set [1], the Activity is 65%. The EC50 in data set [2] stood at 16.3 µM.

Turning to `ONc1nc2nonc2nc1Nc1ccc(-c2ccc(F)cc2)cc1`, in the data set with L6, the result was inactive.

Turning to `O=C(ONc1nc2nonc2nc1Nc1ccccc1F)c1cccc(C(F)(F)F)c1`, in data set [1], the Activity is 71%. In addition, the EC50 in data set [2] turned out to be 1.58 µM.

In the case of `CNNc1nc2nonc2nc1Nc1ccccc1F`, the Activity in data set [1] amounted to 15%. In addition, in data set [2], the EC50 was 77 µM.

For `O=C(ONc1nc2nonc2nc1Nc1ccccc1F)c1ccc(F)cc1F`, the Activity in data set [1] was 97%. Also, in data set [2], the concentration for a half-maximal effect (EC50) amounted to 1.36 µM.

Regarding `ONc1nc2nonc2nc1Nc1cc(F)cc(F)c1`, the result in the data set with L6 was inactive.

On to `O=C(NNc1nc2nonc2nc1Nc1ccccc1F)c1ccc(OC(F)(F)F)cc1`, for which the Activity in data set [1] is recorded as 6%. Besides, the EC50 in data set [2] worked out at 4.3 µM.

In the case of `CC(C)(C)C(=O)ONc1nc2nonc2nc1Nc1ccccc1F`, the Activity in data set [1] came to 86%. Further, the EC50 in data set [2] amounted to 5.2 µM.

Regarding `CCCCC(=O)NNc1nc2nonc2nc1Nc1ccccc1F`, the Activity in data set [1] turned out to be 71%. The EC50 in data set [2] amounted to 14.2 µM.

On to `CC(C)COC(=O)NNc1nc2nonc2nc1Nc1ccccc1F`, for which the Activity in data set [1] is reported as 88%. The Cmax (as a rule, the maximum level reached in the sampled fluid or tissue) in data set [3] (po, 10 mg/kg) was found to be 6600 nM. In addition, the t1/2 in data set [4] worked out at 35.4 min. Moreover, the EC50 in data set [2] was 1.1 µM.

As to `O=C(ONc1nc2nonc2nc1Nc1ccccc1F)c1ccc(OC(F)(F)F)cc1`, the Activity in data set [1] came to 118%. The same compound gave a Cmax in data set [3] (C57BL/6J) of 2 nM. The t1/2 in data set [4] was 15 min. In data set [2], the 50% effective concentration (EC50) is 0.34 µM.

With `O=C(NNc1nc2nonc2nc1Nc1ccccc1F)NC1CCCC1`, the Activity in data set [1] amounted to 23%. Besides, in data set [2], the EC50 is 1.1 µM.

For the compound `O=C(ONc1nc2nonc2nc1Nc1ccccc1F)c1ccccc1F`, the Activity in data set [1] was found to be 45%. Moreover, the EC50 in data set [2] is greater than 100 µM.

With `O=C(ONc1nc2nonc2nc1Nc1ccccc1F)c1cccc(F)c1`, the Activity in data set [1] worked out at 102%. In addition, in data set [2], the EC50 came to 0.71 µM.

As for `CC(C)(C)OC(=O)NNc1nc2nonc2nc1Nc1ccccc1F`, the Activity in data set [1] stood at 103%. Further, the highest level in data set [3] (po, 10 mg/kg) (Cmax) was 220 nM. In addition, the t1/2 in data set [4] was found to be 27 min. The EC50 in data set [2] was 4.6 µM.

Turning to `Cc1ccc(Nc2nc3nonc3nc2NO)cc1`, the result with L6 was inactive.

On to `O=C(ONc1nc2nonc2nc1Nc1ccccc1F)c1cc(C(F)(F)F)ccc1F`, for which the Activity in data set [1] turned out to be 75%. For the same compound, in data set [2], the EC50 came out at 1.4 µM.

For `CC(C)(C)OC(=O)NNc1nc2nonc2nc1Nc1ccccc1Cl`, the Activity in data set [1] is 87%. Moreover, the Cmax in data set [3] (po, 10 mg/kg) turned out to be 170 nM. In data set [4], this compound registered a t1/2 of 108 min. Further, the EC50 in data set [2] is 4.6 µM.

Take `CCCCOC(=O)NNc1nc2nonc2nc1Nc1ccccc1F`: the Activity in data set [1] worked out at 54%. For the same compound, the EC50 in data set [2] worked out at 1.2 µM.

As for `CCCC(=O)NNc1nc2nonc2nc1Nc1ccccc1F`, the Activity in data set [1] came out at 31%. For the same compound, the EC50 in data set [2] was greater than 100 µM.

Consider `CC(C)(C)OC(=O)NNc1nc2nonc2nc1Nc1cccc(Cl)c1`, for which the Activity in data set [1] is on record as 78%. The EC50 in data set [2] was determined as 1.6 µM.

On to `O=C(NNc1nc2nonc2nc1Nc1ccccc1F)c1cccc(F)c1`, for which the Activity in data set [1] amounted to 8%.
